Source: US5057503A, “Derivativized polysaccharides with biologic activity, method of their isolation, and uses therefor” (The Brigham and Women's Hospital, priority 1989, dated 1991)

System: human monocyte β-glucan receptors
Assay: Inhibition of adherent monocyte phagocytosis of zymosan particles after pretreatment with isolated carbohydrates
Assay type: cell-based
Conditions: for phagocytosis-inhibiting activity after derivatization with 2-aminopyridine (in words): 100 ng/ml tested; for activity after derivatization with 2-aminopyridine (in words): as much as 800 ng/ml in the functional monocyte assays; for phagocytosis-inhibiting activity / interaction with human monocyte β-glucan receptors (in words): concentration not given

Row | SMILES | phagocytosis-inhibiting activity after derivatization with 2-aminopyridine (in words) | activity after derivatization with 2-aminopyridine (in words) | phagocytosis-inhibiting activity / interaction with human monocyte β-glucan receptors (in words) | effect on monocyte ingestion of zymosan (in words) (500 ng/ml to 100 μg/ml, without derivatization) | proportion of monocytes ingesting zymosan after pretreatment (100 μg/ml, without derivatization, without pretreatment 67% (synthetic β-heptaglucoside) and 50% (maltoheptose))
1 | OC[C@H]1O[C@@H](OC[C@H]2O[C@@H](OC[C@H]3O[C@@H](OC[C@H]4O[C@@H](OC[C@H]5OC(Nc6ccccn6)[C@H](O)[C@@H](O)[C@@H]5O)[C@H](O)[C@@H](O[C@@H]5O[C@H](CO)[C@@H](O)[C@H](O)[C@H]5O)[C@@H]4O)[C@H](O)[C@@H](O)[C@@H]3O)[C@H](O)[C@@H](O[C@@H]3O[C@H](CO)[C@@H](O)[C@H](O)[C@H]3O)[C@@H]2O)[C@H](O)[C@@H](O)[C@@H]1O (stereo partly drawn) [Derivatized synthetic β-heptaglucoside] | not acquired | remained inactive | remained inactive |  | 
2 | OC[C@H]1O[C@H](O[C@H]2[C@H](O)[C@@H](O)[C@@H](O[C@H]3[C@H](O)[C@@H](O)[C@@H](O[C@H]4[C@H](O)[C@@H](O)[C@@H](O[C@H]5[C@H](O)[C@@H](O)[C@@H](O[C@H]6[C@H](O)[C@@H](O)[C@@H](O[C@H]7[C@H](O)[C@@H](O)C(Nc8ccccn8)O[C@@H]7CO)O[C@@H]6CO)O[C@@H]5CO)O[C@@H]4CO)O[C@@H]3CO)O[C@@H]2CO)[C@H](O)[C@@H](O)[C@@H]1O (some centres unmarked) [Derivatized maltoheptose] | not acquired | remained inactive | remained inactive |  | 
3 | OC[C@H]1O[C@H](O[C@H]2[C@H](O)[C@@H](O)[C@@H](O[C@H]3[C@H](O)[C@@H](O)[C@@H](O[C@H]4[C@H](O)[C@@H](O)[C@@H](O[C@H]5[C@H](O)[C@@H](O)[C@@H](O[C@H]6[C@H](O)[C@@H](O)[C@@H](O[C@H]7[C@H](O)[C@@H](O)C(O)O[C@@H]7CO)O[C@@H]6CO)O[C@@H]5CO)O[C@@H]4CO)O[C@@H]3CO)O[C@@H]2CO)[C@H](O)[C@@H](O)[C@@H]1O (some centres unmarked) [Maltoheptose] |  |  |  | no effect | 52%
